Assays:
[1] = biological target: T1, AChE from bovine erythrocytes (Bos taurus, UniProt P23795); assay: Acetylcholinesterase (AChE) inhibition (from bovine erythrocytes), Ellman method at 30° C., Digiscan 340T; type: biochemical; conditions: bovine erythrocytes AChE, 30° C., 5 min preincubation; read-out: IC50 AchE
T1 construct: 0.02 units AChE (Sigma Chemical Co. from bovine erythrocytes); purchased Sigma Chemical Co; host or cells: bovine erythrocytes
T1 sequence (P23795 31-614 isoform P23795-2 limits assumed): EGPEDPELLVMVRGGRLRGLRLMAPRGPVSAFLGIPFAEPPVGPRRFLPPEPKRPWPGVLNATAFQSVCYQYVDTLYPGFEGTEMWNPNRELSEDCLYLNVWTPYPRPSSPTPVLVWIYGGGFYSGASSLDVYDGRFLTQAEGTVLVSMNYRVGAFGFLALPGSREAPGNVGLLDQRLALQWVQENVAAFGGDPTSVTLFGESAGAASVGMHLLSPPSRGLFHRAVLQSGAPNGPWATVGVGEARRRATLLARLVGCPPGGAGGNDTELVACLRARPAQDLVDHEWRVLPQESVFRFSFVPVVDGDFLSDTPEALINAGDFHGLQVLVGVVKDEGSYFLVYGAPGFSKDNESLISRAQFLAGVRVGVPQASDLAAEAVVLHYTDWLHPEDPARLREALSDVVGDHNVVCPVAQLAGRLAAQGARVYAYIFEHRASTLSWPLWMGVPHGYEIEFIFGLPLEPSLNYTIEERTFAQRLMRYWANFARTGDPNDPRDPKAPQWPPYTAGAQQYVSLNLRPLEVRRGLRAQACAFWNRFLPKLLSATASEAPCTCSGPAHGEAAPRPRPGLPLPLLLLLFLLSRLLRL
Procedure: Acetylcholinesterase (AChE) Inhibition (from Bovine Erythrocytes)
AChE inhibitory activity was evaluated at 30° C. by the colorimetric method reported by Ellman [Ellman, G. L.; Courtney, K. D.; Andres, B.; Featherstone, R. M. Biochem. Pharmacol. 1961, 7, 88-95]. The assay solution consisted of 0.1 M phosphate buffer pH 8, 0.3 mM 5,5′-dithiobis (2-nitrobenzoic acid) (DTNB, Ellman's reagent), 0.02 units AChE (Sigma Chemical Co. from bovine erythrocytes), and 0.5 mM acetylthiocholine iodide as the substrate of the enzymatic reaction. The compounds tested were added to the assay solution and preincubated with the enzyme for 5 min at 30° C. After that period, the substrate was added. The absorbance changes at 405 nm were recorded for 5 min with a microplate reader Digiscan 340T, the reaction rates were compared, and the percent inhibition due to the presence of test compounds was calculated. The reaction rate was calculated with, at least, triplicate measurements, and the percent inhibition due to the presence of test compound was calculated relative to the compound-free control.

BuChE from human serum = biological target: T2, BuChE from human serum (Homo sapiens, UniProt P06276); assay: Butyrylcholinesterase (BuChE) inhibition (from human serum); type: biochemical; conditions: human serum BuChE, 30° C., 10 min preincubation; read-out: IC50 BuChE
T2 construct: The assay solution consisted of 0.01 units BuChE from human serum; from tissue; host or cells: human serum
Procedure: Butyrylcholinetersae (BuChE) Inhibition (from Human Serum)
BuChE inhibitory activity was evaluated at 30° C. by the colorimetric method reported by Ellman (Ellman, G. L.; Courtney, K. D.; Andres, B.; Featherstone, R. M. Biochem. Pharmacol. 1961, 7, 88-95]. The assay solution consisted of 0.01 units BuChE from human serum, 0.1 M sodium phosphate buffer pH 8, 0.3 mM 5,5′-dithiobis (2-nitrobenzoic acid) (DTNB, Ellman's reagent), and 0.5 mM butylthiocholine iodide as the substrate of the enzymatic reaction. Enzyme activity was determined by measuring the absorbance at 405 nm during 5 minutes with a microplate reader Digiscan 340T. The tested compounds were preincubated with the enzyme for 10 minutes at 30° C. The reaction rate was calculated with, at least, triplicate measurements.

[2] = tested on: human neuroblastoma cell line SH—SY5Y; assay: Toxicity measurement (LDH) in SH-SY5Y cells; type: cell-based; conditions: 24 hours exposure
Procedure: The cytotoxicity effect of the molecules was tested in the human neuroblastoma cell line SH—SY5Y. These cells were cultured in 96-well plates in minimum essential medium, Han's F12 medium, supplemented with 10% fetal bovine serum, 1% glutamine and 1% penicillin/streptomycin, and grown in. a 5% CO2 humidified incubator at 37° C.
The cells were plated at 10^4 cells for each well, at least, 48 hours before the toxicity measure. Cells were exposed for 24 hours to the compounds at different concentrations (from 10^−5 to 10^−9), quantitative assessment of cell death was made by measurement of the intracellular enzyme lactate dehydrogenase (LDH) (citotoxicity detection kit, Roche). The cuantity of LDH was evaluated in a microplate reader Anthos 2010, at 492 and 620 nm. Controls were taken as 100% viability.

AChE peripheral site = AChE peripheral site (Homo sapiens, UniProt P22303); assay: Propidium competition (fluorescence); type: binding; conditions: 20 μM propidium iodide, AChE incubated at least 6 hours with compound
Procedure: Fluorescence was measured in a Fluostar optima plate reader (BMG). Measurements were carried out in 100 μl solution volume, in 96-well plates. The buffer used was 1 mM Tris/HCl, pH 8.0. […] AChE was incubated, at least 6 hours, with the molecules at different concentrations. 20 μM propidium iodide was added 10 min before fluorescence measurement.

[3] = tested on: SH—SY5Y cells exposed to H2O2; assay: Antioxidant activity (H2O2 exposure, LDH viability); type: cell-based, human; conditions: 1 hour pretreatment, 24 hours H2O2, LDH
Procedure: In order to evaluate if these compounds have antioxidant properties cells SH—SY5Y were exposed 24 hours to […] H2O2, previously these cells were pretreated for 1 hour with the molecules at different concentrations (from 10^−5 to 10^−9). The antioxidant activity is evaluated measuring cellular viability, using the LDH assay. Cells SH—SY5Y were cultured in 96-well plates as toxicity experiments.

AChE peripheral site, sequence (P22303 32-614): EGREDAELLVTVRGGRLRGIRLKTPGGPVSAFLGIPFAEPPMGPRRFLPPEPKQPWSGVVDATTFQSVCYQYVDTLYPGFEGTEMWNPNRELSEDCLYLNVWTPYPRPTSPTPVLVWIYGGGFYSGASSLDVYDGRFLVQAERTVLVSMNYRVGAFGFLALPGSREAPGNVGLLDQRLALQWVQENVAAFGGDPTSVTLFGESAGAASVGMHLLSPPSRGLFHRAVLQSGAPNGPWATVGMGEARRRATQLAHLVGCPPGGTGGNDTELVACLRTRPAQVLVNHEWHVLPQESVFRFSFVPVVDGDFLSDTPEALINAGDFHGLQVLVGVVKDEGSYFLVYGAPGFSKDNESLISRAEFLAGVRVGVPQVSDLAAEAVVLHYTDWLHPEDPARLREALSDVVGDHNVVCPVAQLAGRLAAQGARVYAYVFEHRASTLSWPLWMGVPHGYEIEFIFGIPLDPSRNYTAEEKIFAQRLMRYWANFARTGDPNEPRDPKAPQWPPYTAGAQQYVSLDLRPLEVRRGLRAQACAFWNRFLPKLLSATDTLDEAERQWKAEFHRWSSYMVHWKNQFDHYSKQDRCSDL
T2 sequence (P06276 29-602): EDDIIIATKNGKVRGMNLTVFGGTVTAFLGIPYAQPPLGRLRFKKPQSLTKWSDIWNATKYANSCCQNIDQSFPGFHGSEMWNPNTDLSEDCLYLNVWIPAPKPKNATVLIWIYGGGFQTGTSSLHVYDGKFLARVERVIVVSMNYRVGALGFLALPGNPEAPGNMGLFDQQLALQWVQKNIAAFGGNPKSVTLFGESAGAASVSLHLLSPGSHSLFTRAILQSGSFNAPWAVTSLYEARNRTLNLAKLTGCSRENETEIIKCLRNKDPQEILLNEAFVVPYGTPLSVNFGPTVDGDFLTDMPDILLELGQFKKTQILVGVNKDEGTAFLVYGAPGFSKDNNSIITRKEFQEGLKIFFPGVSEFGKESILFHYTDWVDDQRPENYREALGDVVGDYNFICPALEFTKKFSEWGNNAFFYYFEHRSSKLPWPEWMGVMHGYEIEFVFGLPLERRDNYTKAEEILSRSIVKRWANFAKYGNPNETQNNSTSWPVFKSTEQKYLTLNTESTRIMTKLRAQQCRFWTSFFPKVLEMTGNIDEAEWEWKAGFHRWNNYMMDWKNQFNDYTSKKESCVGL

CN(CCCNc1c2c(nc3ccccc13)CCCC2)CCCNc1c2ccccc2nc2ccccc12 [Compound 21]
IC50 [1]: 4 nM | IC50 (BuChE from human serum): 70 nM | Toxicity [2]: >100 µM | Propidium competition (AChE peripheral site): 1000 µM | Antioxidant activity [3]: 10 µM

— US20060142323A1, “Dual binding site acetylcholinesterase inhibitors for the treatment of alzheimer's disease” (priority 2002, published 2006)
